{
  "source": "patent EP3878460A1",
  "about": "“GREEN TEA EXTRACT HAVING MODIFIED CONSTITUENT CONTENT AND COMPOSITION COMPRISING SAME” (priority 2018, dated 2020)",
  "key": {"[1]": {"system": "hepatocytes (HepG2 cells)", "experiment": "Hepacytotoxicity, cell viability by MTS assay", "procedure": "In order to investigate the hepatotoxicity of the high-temperature-processed green tea extract obtained in Example 1 (sample 2), hepatocytes (HepG2 cells) acquired from Korean Cell Line Bank were seeded onto a 96-well plate (Falcon) with 1×10^5 cells per well and cultured for 24 hours in a 5% CO2 incubator at 37 °C. Then, after treating with the sample 1 or sample 2 at 5, 10, 25, 50 or 100 µg/mL and culturing further for 24 hours, the medium was removed and cell viability was investigated using a CellTiter 96 AQueous One Solution cell proliferation assay kit (MTS, Promega Co. Madison, WI, USA). After treating the cells with 20 µL of a CellTiter 96 AQueous One Solution cell proliferation assay kit (MTS, Promega Co. Madison, WI, USA) solution added to 100 µL of RPMI1640 (Lonza), the number of live cells was quantified by measuring absorbance at 490 nm. The cell number or cell viability (%) was calculated by the following equation. Cell viability (%) = (absorbanceofsample-treatedgroup−absorbanceofreagentalone)/(absorbanceofnon-treatedgroup−absorbanceofreagentalone) × 100 [formula]\nAfter treating the cells with 20 µL of a CellTiter 96 AQueous One Solution cell proliferation assay kit (MTS, Promega Co. Madison, WI, USA) solution added to 100 µL of RPMI1640 (Lonza), the number of live cells was quantified by measuring absorbance at 490 nm. The cell number or cell viability (%) was calculated as described in Test Example 1."}, "[2]": {"system": "hepatocytes (HepG2 cells)", "type": "cell-based, human", "procedure": "The experimental condition was the same as in Test Example 1. After treating the cells with the sample 1 or sample 2, the levels of malate dehydrogenase 1 (MDH 1), α-glutathione S-transferase (GSTα) and sorbitol dehydrogenase (SDH) in the cell culture were measured 24 later.\nIn order to investigate the effect of the EGCG, GCG and EGC among the eight catechins on hepatocyte damage, release of enzymes from hepatocytes due to hepatocyte damage was analyzed using the MILLIPLEX Analyst software (Millipore). The experimental condition was the same as in Test Example 3. After treating the cells with EGCG, GCG or EGC, the levels of malate dehydrogenase 1 (MDH 1), α-glutathione S-transferase (GSTα) and sorbitol dehydrogenase (SDH) in the cell culture were measured 24 later."}, "[3]": {"system": "HepG2 human liver cancer cells", "experiment": "Inhibition of lipid accumulation in hepatocytes (Oil Red O staining, stearic acid load)", "type": "cell-based", "settings": "100 µM stearic acid, 48 hours, FIG. 8", "procedure": "In order to investigate the effect of inhibiting lipid accumulation in hepatocytes of the green tea extract sample 1 and sample 2 of Example 1, the inhibition of fat accumulation was compared after culturing HepG2 human liver cancer cells and treating with each sample.\nSpecifically, hepatocytes (HepG2 cells) were seeded onto a 12-well plate (Falcon) with 1×10^6 cells per well and cultured in a 5% CO2 incubator at 37 °C for 24 hours. Then, after treating with each of the sample 1 and the sample 2 at 3, 10 or 30 µg/mL and 100 µM stearic acid conjugated with bovine serum albumin (BSA), the cells were cultured for 48 hours. After removing the medium and washing with PBS, the cells were fixed with 4% formaldehyde. After incubating with 100% propylene glycol for 5 minutes, the fat in the cells was stained by adding 500 µL of Oil Red O solution (Sigma) per well and culturing the cells for 2 hours. […] After transferring 200 µL of the isopropanol solution to a 96-well plate, the fat accumulated in the cells was quantified by measuring absorbance at 485 nm. The Oil Red O content (%) relative to a control group (0.1% (v/v) DMSO) was calculated by the following equation. Oil red O content (%) = (absorbanceofsample-treatedgroup−absorbanceofcontrolgroup) × 100 [formula] […]"}, "[4]": {"settings": "HepG2 cells, 10, 50, 100 or 200 µM, 24 hours, calculated from cell viability"}},
  "data": [
    {"compound": "Oc1cc(O)c2c(c1)O[C@H](c1ccc(O)c(O)c1)[C@H](O)C2", "note": "[EC, (-)epicatechin]", "values": [
      {"measurement": "LD50", "setting": "[1]; human, 24 h", "result": 505.0, "unit": "µM"}
    ]},
    {"compound": "Oc1cc(O)c2c(c1)O[C@H](c1cc(O)c(O)c(O)c1)[C@H](O)C2", "note": "[EGC, epigallocatechin]", "values": [
      {"measurement": "levels of the three enzymes (MDH 1, GSTα, SDH) in the cell culture", "setting": "[2]", "result": "highest"},
      {"measurement": "hepacytotoxicity among the eight catechins", "setting": "[1]", "result": "highest hepacytotoxicity"},
      {"measurement": "LD50", "setting": "[1]; [4]", "result": 183.9, "unit": "µM"}
    ]},
    {"compound": "O=C(O[C@@H]1Cc2c(O)cc(O)cc2O[C@@H]1c1cc(O)c(O)c(O)c1)c1cc(O)c(O)c(O)c1", "note": "[EGCG, epigallocatechin gallate]", "values": [
      {"measurement": "LD50", "setting": "[1]; [4]", "result": 355.5, "unit": "µM"}
    ]},
    {"compound": "Oc1cc(O)c2c(c1)O[C@H](c1cc(O)c(O)c(O)c1)[C@@H](O)C2", "note": "[GC, gallocatechin]", "values": [
      {"measurement": "LD50", "setting": "[1]; [4]", "result": 236.2, "unit": "µM"}
    ]},
    {"compound": "O=C(O[C@@H]1Cc2c(O)cc(O)cc2O[C@H]1c1cc(O)c(O)c(O)c1)c1cc(O)c(O)c(O)c1", "note": "[GCG, gallocatechin gallate]", "values": [
      {"measurement": "LD50", "setting": "[1]; [4]", "result": 212.7, "unit": "µM"},
      {"measurement": "effect of inhibiting lipid accumulation in hepatocytes compared to EGCG at the same concentration", "setting": "[3]", "result": "remarkably excellent effect of inhibiting lipid accumulation in hepatocytes"}
    ]},
    {"compound": "epicatechin 3-O-gallate [ECG]", "values": [
      {"measurement": "LD50", "setting": "[1]; [4]", "result": 209.0, "unit": "µM"}
    ]}
  ]
}
